# Patent US12503471B2, “Triazatricycle compounds for the treatment of autoimmune disease” (Hoffmann-La Roche Inc., priority 2019, dated 2025)
# Target: T1, hERG channel (Homo sapiens, UniProt Q12809)
# T1 construct: expressed in transfected cells; host or cells: CHO (Chinese hamster ovary)
# Assay: hERG channel inhibition assay
# Format: cell-based
# Conditions: whole-cell patch-clamp; for IC50: CHO cells expressing hERG; for IC20: human, CHO cells stably expressing hERG
# Experimental: hERG Channel Inhibition Assay
# The hERG K^+ channels were cloned in humans and stably expressed in a CHO (Chinese hamster ovary) cell line. CHOhERG cells were used for patch-clamp (voltage-clamp, whole-cell) experiments. Cells were stimulated by a voltage pattern to activate hERG channels and conduct IKhERG Currents (rapid delayed outward rectifier potassium current of the hERG channel). After the cells were stabilized for a few minutes, the amplitude and kinetics of IKhERG were recorded at a stimulation frequency of 0.1 Hz (6 bpm). Thereafter, the test compound was added to the preparation at increasing concentrations. For each concentration, an attempt was made to reach a steady-state effect, usually, this was achieved within 3-10 min at which time the next highest concentration was applied. The amplitude and kinetics of IKhERG are recorded in each concentration of the drug which were compared to the control values (taken as 100%). (references: Redfern W S, Carlsson L, Davis A S, Lynch W G, MacKenzie I, Palethorpe S, Siegl P K, Strang I, Sullivan A T, Wallis R, Camm A J, Hammond T G. 2003; Relationships between preclinical cardiac electrophysiology, clinical Q T interval prolongation and torsade de pointes for a broad range of drugs: evidence for a provisional safety margin in drug development. Cardiovasc. Res. 58:32-45, Sanguinetti M C, Tristani-Firouzi M. 2006; hERG potassium channels and cardiac arrhythmia. Nature 440:463-469, Webster R, Leishman D, Walker D. 2002; Towards a drug concentration effect relationship for QT prolongation and torsades de pointes. Curr. Opin. Drug Discov. Devel. 5:116-26).
# T1 sequence (Q12809 whole entry): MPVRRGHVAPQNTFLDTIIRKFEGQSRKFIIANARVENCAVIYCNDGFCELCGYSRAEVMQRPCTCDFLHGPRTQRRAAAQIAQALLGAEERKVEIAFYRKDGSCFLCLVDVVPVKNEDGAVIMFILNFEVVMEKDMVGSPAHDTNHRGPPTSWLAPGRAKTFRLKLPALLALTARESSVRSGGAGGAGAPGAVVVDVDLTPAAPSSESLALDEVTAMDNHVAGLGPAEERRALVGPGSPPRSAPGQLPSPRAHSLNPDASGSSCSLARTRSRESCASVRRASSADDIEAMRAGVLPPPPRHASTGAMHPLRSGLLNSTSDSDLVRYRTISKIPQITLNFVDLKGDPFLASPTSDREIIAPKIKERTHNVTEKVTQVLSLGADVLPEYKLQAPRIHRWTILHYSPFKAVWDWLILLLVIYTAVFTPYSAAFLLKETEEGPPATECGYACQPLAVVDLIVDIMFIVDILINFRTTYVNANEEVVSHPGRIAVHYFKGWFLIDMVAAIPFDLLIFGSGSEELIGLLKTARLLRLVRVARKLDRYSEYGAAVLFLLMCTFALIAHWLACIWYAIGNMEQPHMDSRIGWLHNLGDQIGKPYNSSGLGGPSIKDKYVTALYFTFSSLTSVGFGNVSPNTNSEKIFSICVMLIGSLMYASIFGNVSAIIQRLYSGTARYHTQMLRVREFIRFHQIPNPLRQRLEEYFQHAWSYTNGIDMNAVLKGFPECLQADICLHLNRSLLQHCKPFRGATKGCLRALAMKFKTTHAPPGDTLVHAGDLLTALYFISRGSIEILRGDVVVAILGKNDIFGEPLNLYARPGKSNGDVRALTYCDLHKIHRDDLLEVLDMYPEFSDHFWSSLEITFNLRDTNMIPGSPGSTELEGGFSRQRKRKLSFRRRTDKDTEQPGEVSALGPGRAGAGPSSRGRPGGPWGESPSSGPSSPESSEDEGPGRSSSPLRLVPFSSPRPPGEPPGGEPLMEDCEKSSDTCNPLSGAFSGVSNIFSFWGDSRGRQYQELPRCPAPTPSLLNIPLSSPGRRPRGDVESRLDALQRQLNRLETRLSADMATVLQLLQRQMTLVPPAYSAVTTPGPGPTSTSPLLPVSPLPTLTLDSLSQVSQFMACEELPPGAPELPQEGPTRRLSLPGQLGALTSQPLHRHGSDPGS
SMILES,IC50 [µM],IC20 [µM]
"C[C@@H]1CN(c2ccc(C#N)c3ncccc23)C[C@@H]2c3ccc(N4CCCNCC4)nc3CN12 [Example 20, 5-[(2S,6R)-11-(1,4-diazepan-1-yl)-6-methyl-4,7,10-triazatricyclo[7.4.0.02,7]trideca-1(9),10,12-trien-4-yl]quinoline-8-carbonitrile]",> 20,> 10
"[2H]c1ccc2c(N3C[C@@H](C)N4Cc5nc(N6CCC7(CNC7)C6)ccc5[C@H]4C3)ccc(C#N)c2n1 [Example 9, 2-Deuterio-5-[(2S,6R)-11-(2,6-diazaspiro[3.4]octan-6-yl)-6-methyl-4,7,10-triazatricyclo[7.4.0.02,7]trideca-1(9),10,12-trien-4-yl]quinoline-8-carbonitrile]",> 20,> 10
"C[C@@H]1CN(c2ccc(C#N)c3ncccc23)C[C@@H]2c3ccc(N4CC5CNCC(C4)O5)nc3CN12 [Example 6, 5-[(2S,6R)-6-methyl-11-(9-oxa-3,7-diazabicyclo[3.3.1]nonan-3-yl)-4,7,10-triazatricyclo[7.4.0.02,7]trideca-1(9),10,12-trien-4-yl]quinoline-8-carbonitrile]",> 20,> 10
"[2H]c1ccc2c(N3C[C@@H](C)N4Cc5nc(N6CC[C@](C)(N)C6)ccc5[C@H]4C3)ccc(C#N)c2n1 [Example 8, 5-[(2S,6R)-11-[(3S)-3-amino-3-methyl-pyrrolidin-1-yl]-6-methyl-4,7,10-triazatricyclo[7.4.0.02,7]trideca-1(9),10,12-trien-4-yl]-2-deuterio-quinoline-8-carbonitrile]",> 20,5.5
"[2H]c1ccc2c(N3C[C@@H](C)N4Cc5nc(N6CC[C@@](C)(N)C6)ccc5[C@H]4C3)ccc(C#N)c2n1 [Example 7, 5-[(2S,6R)-11-[(3R)-3-amino-3-methyl-pyrrolidin-1-yl]-6-methyl-4,7,10-triazatricyclo[7.4.0.02,7]trideca-1(9),10,12-trien-4-yl]-2-deuterio-quinoline-8-carbonitrile]",> 20,> 10
"[2H]c1ccc2c(N3C[C@@H](C)N4Cc5nc(N6C[C@H]7C[C@@H]6CN7)ccc5[C@H]4C3)ccc(C#N)c2n1 [Example 17, 2-Deuterio-5-[(2S,6R)-11-[(1R,4R)-2,5-diazabicyclo[2.2.1]heptan-2-yl]-6-methyl-4,7,10-triazatricyclo[7.4.0.02,7]trideca-1(9),10,12-trien-4-yl]quinoline-8-carbonitrile]",> 20,> 10
